Experiment [1] concerns type I interferon genes. Put plainly: IFNα and IFNβ gene expression in popliteal draining lymph nodes (Taqman gene expression assay, RT-PCR). It counts as in vivo, C57BL/6J mice. Particulars: 50 μl of 6 mM nanoparticles s.c. foot pads; popliteal DLN; 3 h or 24 h. As for the experimental part:
The data in FIG. 2 corresponds to an experiment wherein C57BL/6J mice (n=2) were injected with 50 μl of 6 mM R-DOTAP or S-DOTAP nanoparticles subcutaneously in the foot pads. Mice injected with PBS, and LPS (50 μg/mouse) (24 h time point) were used as negative and positive controls respectively. 3 h or 24 hr after injection, popliteal draining lymph nodes from each mouse were pooled and lysed in RLT buffer and processed for relative gene expression analysis using Taqman gene expression assay and RT-PCR.
RNA isolation, Nano string Analysis, and gene expression assay: For gene expression analysis, draining popliteal lymph nodes (n=4) were enzymatically digested using cell dissociation cocktail for 60 min at 37° C., and single cell suspensions were used to sort CD11c+ ells using Sony SY3200 cell sorter. Sort purified CD11c+ cells (25K cells) were lysed in Qiagen's RLT cell lysis buffer (Qiagen, USA) and total RNA was isolated using Qiagen total RNA isolation kit (Qiagen, USA). […] Binding of mRNA was detected with Nanso String nCounter analysis system, and raw count data was normalized and statistically analyzed using SAS program by UK genomics core laboratory. For confirmation studies using RT-PCR, the lymph nodes were directly lysed in RLT cell lysis buffer, and the total isolation RNA was reverse transcribed to cDNA using QuantiTect reverses transcription kit (Qiagen, USA). […]
A general note: Quantitative PCR measures a nucleic acid by following its amplification.

For another experiment, the system named is draining lymph nodes. Put plainly: Cell recruitment: size and total cell number of draining lymph nodes. The class given is in vivo, C57BL/6J mice or IFNAR−/− mice. The method, then:
(§1) The data in FIG. 3 corresponds to an experiment wherein A) C57BL/6J mice (n=3) were injected with 50 μl of 6 mM R-DOTAP or 280 mM Sucrose subcutaneously in the foot pads. At indicated times popliteal draining lymph nodes from each mouse were isolated and single suspensions of lymph nodes were enumerated using hemocytometer to obtain total cell numbers. B) C57BL/6J (n=3) or IFNAR−/− (n=3) mice were injected with 50 μl of 6 mM R-DOTAP or 280 mM sucrose in the foot pad and draining popliteal lymph nodes were harvested from each mouse and enzymatically digested lymph nodes were assessed for the total cell number at 24 hr (B) using hemocytometer and expression of CD69 on CD3+ T cells (B) was assessed using flowcytometry. A-B) data represent total number of cells in each draining lymph node. C) Data represent percent CD69+ cells each group 24 hr after vaccination (n=3 mice per group).
To further understand the effect and ability of cationic lipids to activate the type I interferons, C57BL/6J mice or IFNAR−/− mice were injected with 50 μl of 6 mM R-DOTAP nanoparticles or 6 mM S-DOTAP or 280 mM sucrose subcutaneously in the foot pads. 24 hr after injection, popliteal draining lymph nodes from each mouse were isolated and single cell suspensions of lymph nodes were stained with fluorochrome conjugated CD3 and CD69. […] Type I IFN is known to inhibit lymphocyte egress from lymphoid organs through the up-regulation of CD69 which, in turn, inhibits the sphingosine 1 phosphate receptor required for lymphocyte egress. We therefore postulated that injection of both S-DOTAP and R-DOTAP would result in the upregulation of CD69 in the DLN. […] The data represents % CD69+CD3+ T cells in each draining lymph node.

In experiment [2] the test system is type I interferon genes. Put plainly: Inflammatory gene expression in sorted CD11c+ cells of draining lymph nodes (nCounter mouse inflammation kit, nanostring). It counts as in vivo, C57BL/6J mice. As for the experimental part: The data in FIG. 1 corresponds to an experiment wherein C57BL/6J mice (n=4) were injected with 100 μl of 12 mM R-DOTAP liposome nanoparticles subcutaneously behind the neck. Mice injected with PBS, and LPS (50 μg/mouse) (24 h time point) were used as negative and positive controls respectively. 4 h or 24 hr after injection, axillary and brachial draining lymph nodes from each mouse were pooled and processed by collagenase digestion. CD11c positive cells (˜20,000 cells) in these lymph node cell suspensions were sort-purified and lysed in RLT buffer and processed for relative gene expression analysis using nCounter® mouse inflammation kit and nanostring technologies.
RNA isolation, Nano string Analysis, and gene expression assay: For gene expression analysis, draining popliteal lymph nodes (n=4) were enzymatically digested using cell dissociation cocktail for 60 min at 37° C., and single cell suspensions were used to sort CD11c+ ells using Sony SY3200 cell sorter. Sort purified CD11c+ cells (25K cells) were lysed in Qiagen's RLT cell lysis buffer (Qiagen, USA) and total RNA was isolated using Qiagen total RNA isolation kit (Qiagen, USA). Total RNA obtained was sent to University of Kentucky genomics core laboratory (Lexington, KY) where total RNA was mixed with Ncounter™ mouse inflammation panel (Nano String Technologies, Seattle, WA) which can measure over 547 genes involved in immune response. Binding of mRNA was detected with Nanso String nCounter analysis system, and raw count data was normalized and statistically analyzed using SAS program by UK genomics core laboratory. For confirmation studies using RT-PCR, the lymph nodes were directly lysed in RLT cell lysis buffer, and the total isolation RNA was reverse transcribed to cDNA using QuantiTect reverses transcription kit (Qiagen, USA). The cDNA was then amplified using TaqMan gene expression system (Applied biosystems, USA) to detect and quantify mouse IFNα and IFNβ transcripts relative to GAPDH expression using quantitative PCR reaction.
To assess cationic nanoparticle induced gene expression, C57BL/6J mice were injected with 100 μl of 12 mM R-DOTAP nanoparticles subcutaneously behind the neck, and inflammatory gene expression in draining lymph nodes analyzed 4 or 24 hours post vaccination. Mice injected with PBS, and LPS (50 μg/mouse) (24 h time point) were used as negative and positive controls respectively. 4 h or 24 hr after injection, axillary and brachial draining lymph nodes from each mouse were pooled and processed by collagenase digestion. Activated dendritic cells (CD11c^+) cells in the lymph node cell suspensions were sort-purified and lysed in RLT buffer and processed for relative gene expression analysis using nCounter® mouse inflammation kit and nanostring technologies.

Another experiment has as its system CD69. Put plainly: CD69 expression on CD3+ T cells in draining lymph nodes (flow cytometry). The class given is in vivo, C57BL/6J mice or IFNAR−/− mice. Particulars: 24 hr. The method, then:
as §1
IFN reporter cell assay and Cell phenotypic analysis: For detecting IFN, the supernatants from type I IFN producing cells were added to B16-Blue™ IFN-α/β Cells in a 96 well plate. After 24 hr incubation, the supernatants were assayed for SEAP activity using QUANTI-Blue™ reagent (InvivoGen, USA) according to manufacturer's instructions. Briefly, 50 μl of cell supernatants containing SEAP was mixed with 150 μl QUANTI-Blue™ reagent and incubated for 3-4 hr at 37° C. and absorbance was measured at 650 nm using a spectrometer. The concentrations of type I IFN in test samples were quantified using a standard curve generated from recombinant type I IFNβ treated B16-Blue™ IFN-α/β Cells in the same assay. To measure CD69 expression, single cell suspensions of lymph nodes were stained with fluorochrome conjugated CD3, and CD69 and percent CD69+CD3+ T cells in each draining lymph node were measured using flowcytometry.
To further understand the effect and ability of cationic lipids to activate the type I interferons, C57BL/6J mice or IFNAR−/− mice were injected with 50 μl of 6 mM R-DOTAP nanoparticles or 6 mM S-DOTAP or 280 mM sucrose subcutaneously in the foot pads. […]
(In general: Flow cytometry measures light scatter and fluorescence of single cells or particles in a stream.)

The mark [3] stands for this setting: wild type mice, 50 μl of 6 mM s.c. foot pads.

Two compounds from patent US12551460B2, “Methods and compositions comprising cationic lipids for stimulating type 1 interferon genes” (PDS BIOTECHNOLOGY COPORATION, priority 2017, dated 2026) can be followed below.

Entries after “also recorded” stand apart in the source; their conditions may differ.

As for `CCCCCCCC/C=C\CCCCCCCC(=O)OC[C@@H](C[N+](C)(C)C)OC(=O)CCCCCCC/C=C\CCCCCCCC` [R-DOTAP, (R)-1,2-dioleoyl-3-trimethylammonium propane], the “Type I interferon (IFNα, IFNβ) gene expression, RT-PCR” value in the experiment on type I interferon genes [1] was “strong inducers; also recorded: up-regulation”. The DLN size entry with draining lymph nodes (50 μl of 6 mM s.c. foot pads, without antigen, wild type mice) is reported as “visible increase”. In addition, the “Increase in total cell number in DLN in IFNαR knock-out mouse versus wild type” value in the experiment on draining lymph nodes (IFNαR knock-out mouse, 24 hr) was “greatly reduced”. The “Total cell number in DLN” value in the experiment with draining lymph nodes (wild type mice, over a 7-day period) is “steady increase”. Moreover, the “Expression of IFN-1α and IFN-1β, increase relative to LPS positive control” value in the experiment with type I interferon genes [2] (100 μl of 12 mM nanoparticles s.c. behind the neck, CD11c+ cells of axillary and brachial DLN, 4 or 24 h, LPS 50 μg/mouse) was “greater than 5 fold”. Further, the “Expression of several inflammatory genes” value in the experiment on type I interferon genes [2] (100 μl of 12 mM s.c., both time points (4 h, 24 h)) is “significantly alter”. In the experiment on type I interferon genes [2] (100 μl of 12 mM s.c., compared with LPS), the “Expression of other genes including Cxc110” value was “significantly increased and more comparable to levels induced by LPS”. In addition, the “Type I interferon gene expression (nanostring)” value with type I interferon genes [2] (FIG. 1, mean of 4 mice) is “up-regulation”. In addition, the entries for the “CD69 expression in DLN T cells” value in the experiment on CD69 (IFNαR knock-out mice) and in the experiment on CD69 (setting [3]) were “no CD69 upregulation” and “up-regulation of CD69 most strongly in T cells”, respectively.
Regarding `CCCCCCCC/C=C\CCCCCCCC(=O)OCC(C[N+](C)(C)C)OC(=O)CCCCCCC/C=C\CCCCCCCC` (stereo not drawn) [S-DOTAP, 1,2-dioleoyl-3-trimethyl ammonium-propane], the “Type I interferon (IFNα, IFNβ) gene expression, RT-PCR” value in the experiment with type I interferon genes [1] is “strong inducers; also recorded: up-regulation”. Moreover, the “CD69 expression in DLN T cells” value with CD69 (setting [3]) is on record as “up-regulation of CD69 most strongly in T cells”.
